In US10392379B2, “Hepatitis B core protein modulators” (Assembly Biosciences, Inc., priority 2015, dated 2019):

Legend:
HBV = experiment: Viral load production in AD38 cells by quantitative PCR of the core sequence; type: cell-based; conditions: Hepatitis B virus, 144 h, 10 μM compound, 6 days, supernatant qPCR, relative to DMSO control, read-out: AD38 Viral Load (%) (VL with cmpd/VL in DMSO control) at 10 μM
Method: (§1) AD38 cells were then re-suspended with 10 mL of Treatment Medium and counted. Wells of a collagen coated 96-well NUNC microtiter plate were seeded at 50,000/well in 180 μL of Treatment Medium, and 20 μL of in treatment media with either 10% DMSO (Control) or a 10× solution of compound in 10% DMSO was added. Plates were incubated for 6 days at 37° C.
Viral load production was assayed by quantitative PCR of the core sequence. […] The PCR mixture was incubated at 45° C. for 5 minutes, then 95° C. for 10 min, followed by 40 cycles of 10 seconds at 95° C. and 20 seconds at 60° C. Viral load was quantitated against known standards by using ViiA™ 7 Software. Viral load in the supernatant from wells with treated cells were compared against viral load in supernatant from DMSO control wells (≥3 per plate).

AD38 cells = experiment: Viability of AD38 cells (Promega CellTiter-Glo); type: cell-based; conditions: 10 μM compound, 6 days, DMSO controls = 100%
Method: as §1
At the end of compound treatment period cell viability was assessed using a Promega CellTiter-Glo protocol. All supernatant was removed the previously treated 96-well microtiter plate, and 50 μL Tetracycline-free treatment medium (DMEM/F12 (1:1), 1× Pen/step (cat#: 30-002-CL, Mediatech, Inc), with 2% FBS, Tet-system approved (cat#: 631106, Clontech), and 1% DMSO was added back to each well. Another 50 μL of CellTiter-Glo reagent solution (Promega, G7573) was then added at room temperature and the contents mixed for 2 minutes on an orbital shaker to induce cell lysis. This was followed by incubation at room temperature for 10 minutes to stabilize the luminescent signal. The luminescence was recorded for 0.2 seconds per well on a Tecan multimode platereader (Infinite M1000 pro). The luminescent signal from each well was normalized against that of untreated (DMSO) control wells. All results in Table 3 were reported with percent viability (with controls being 100%).

Compound: N#Cc1ccc(-c2ccc(CNC(=O)c3ccc4c(c3)NC(=O)c3ccccc3S4(=O)=O)cn2)cc1 [Compound 867]
- activity at 10 µM (HBV): 0.6%
- AD38 Viability Normalized Result (cmpd/DMSO %) at 10 μM (AD38 cells): 86%

Compound: Nc1ncc(-c2ncc(CNC(=O)c3ccc4c(c3)NC(=O)c3ccccc3S4(=O)=O)cn2)cn1 [Compound 792]
- activity at 10 µM (HBV): 23.1%
- AD38 Viability Normalized Result (cmpd/DMSO %) at 10 μM (AD38 cells): 105%

Compound: CC1c2ccc(C(=O)NCc3cccnc3)cc2NC(=O)c2ccccc21 (stereo not drawn) [Compound 547]
- activity at 10 µM (HBV): 1.5%
- AD38 Viability Normalized Result (cmpd/DMSO %) at 10 μM (AD38 cells): 99%

Compound: O=C(NCc1cnc(-c2ccc3[nH]ccc3c2)nc1)c1ccc2c(c1)NC(=O)c1ccccc1S2(=O)=O [Compound 789]
- activity at 10 µM (HBV): 0.4%
- AD38 Viability Normalized Result (cmpd/DMSO %) at 10 μM (AD38 cells): 108%

Compound: O=C(NCc1ccc(Cc2ccc(O)cc2)nc1)c1ccc2c(c1)NC(=O)c1ccccc1S2(=O)=O [Compound 825, N-((6-(4-hydroxybenzyl)pyridin-3-yl)methyl)-11-oxo-10,11-dihydrodibenzo[b,f][1,4]thiazepine-8-carboxamide 5,5-dioxide]
- activity at 10 µM (HBV): 6.6%
- AD38 Viability Normalized Result (cmpd/DMSO %) at 10 μM (AD38 cells): 90%

Compound: O=C(NCc1cnc(-c2ccc3[nH]ncc3c2)nc1)c1ccc2c(c1)NC(=O)c1ccccc1S2(=O)=O [Compound 790]
- activity at 10 µM (HBV): 1.7%
- AD38 Viability Normalized Result (cmpd/DMSO %) at 10 μM (AD38 cells): 103%

Compound: O=C(NCc1ccc(-c2ccc(O)cc2)nc1)c1ccc2c(c1)NC(=O)c1ccccc1S2(=O)=O [Compound 778]
- activity at 10 µM (HBV): 3.2%
- AD38 Viability Normalized Result (cmpd/DMSO %) at 10 μM (AD38 cells): 104%

Compound: O=C(NCc1cnc(-c2ccc(O)c(F)c2)nc1)c1ccc2c(c1)NC(=O)c1ccccc1S2(=O)=O [Compound 796]
- activity at 10 µM (HBV): 1.4%
- AD38 Viability Normalized Result (cmpd/DMSO %) at 10 μM (AD38 cells): 111%

Compound: O=C(NCc1ccc(-c2ccc(O)cc2F)nc1)c1ccc2c(c1)NC(=O)c1ccccc1S2(=O)=O [Compound 785]
- activity at 10 µM (HBV): 2.1%
- AD38 Viability Normalized Result (cmpd/DMSO %) at 10 μM (AD38 cells): 94%

Compound: O=C(NCc1cnc(-c2ccc3[nH]cnc3c2)nc1)c1ccc2c(c1)NC(=O)c1ccccc1S2(=O)=O [Compound 791]
- activity at 10 µM (HBV): 2.2%
- AD38 Viability Normalized Result (cmpd/DMSO %) at 10 μM (AD38 cells): 100%

Compound: O=C(NCc1ccc(-c2ccc3[nH]ncc3c2)nc1)c1ccc2c(c1)NC(=O)c1ccccc1S2(=O)=O [Compound 780]
- activity at 10 µM (HBV): 1.8%
- AD38 Viability Normalized Result (cmpd/DMSO %) at 10 μM (AD38 cells): 106%

Compound: O=C(NCc1ccc(-c2ccc3[nH]ccc3c2)nc1)c1ccc2c(c1)NC(=O)c1ccccc1S2(=O)=O [Compound 779]
- activity at 10 µM (HBV): 0.5%
- AD38 Viability Normalized Result (cmpd/DMSO %) at 10 μM (AD38 cells): 87%

Compound: O=C(NCc1ccc(-c2ccc(O)c(F)c2)nc1)c1ccc2c(c1)NC(=O)c1ccccc1S2(=O)=O [Compound 786]
- activity at 10 µM (HBV): 5%
- AD38 Viability Normalized Result (cmpd/DMSO %) at 10 μM (AD38 cells): 105%

Compound: N#Cc1ccc(-c2ccc(CNC(=O)c3ccc4c(c3)NC(=O)c3ccccc3S4(=O)=O)nc2)cc1 [Compound 869, N-((5-(4-cyanophenyl)pyridin-2-yl)methyl)-11-oxo-10,11-dihydrodibenzo[b, f][1,4]thiazepine-8-carboxamide 5,5-dioxide]
- activity at 10 µM (HBV): 13.3%
- AD38 Viability Normalized Result (cmpd/DMSO %) at 10 μM (AD38 cells): 83%

Compound: O=C(NCc1cncnc1)c1ccc2c(c1)NC(=O)c1ccccc1N2 [Compound 504]
- activity at 10 µM (HBV): 62.9%
- AD38 Viability Normalized Result (cmpd/DMSO %) at 10 μM (AD38 cells): 101%

Compound: O=C(NCc1cnc(-c2ccc(O)cc2)nc1)c1ccc2c(c1)NC(=O)c1ccccc1S2(=O)=O [Compound 788]
- activity at 10 µM (HBV): 1.9%
- AD38 Viability Normalized Result (cmpd/DMSO %) at 10 μM (AD38 cells): 111%

Compound: NC(=O)c1ccc(-c2ncc(CNC(=O)c3ccc4c(c3)NC(=O)c3ccccc3S4(=O)=O)cn2)cc1 [Compound 872, N-((2-(4-carbamoylphenyl)pyrimidin-5-yl)methyl)-11-oxo-10, 11-dihydrodibenzo[b,f][1,4]thiazepine-8-carboxamide 5,5-dioxide]
- activity at 10 µM (HBV): 5.2%
- AD38 Viability Normalized Result (cmpd/DMSO %) at 10 μM (AD38 cells): 104%

Compound: O=C(NCc1ccc(Cc2ccc(O)cc2)nc1)c1ccc2c(c1)NC(=O)c1ccccc1O2 [Compound 837, N-((6-(4-hydroxybenzyl)pyridin-3-yl)methyl)-11-oxo-10,11-dihydrodibenzo[b,f][1,4]oxazepine-8-carboxamide]
- activity at 10 µM (HBV): 0.9%
- AD38 Viability Normalized Result (cmpd/DMSO %) at 10 μM (AD38 cells): 108%

Compound: O=C(NCc1cccnc1)c1ccc2c(c1)NC(=O)c1ccccc1N2 [Compound 507]
- activity at 10 µM (HBV): 51.9%
- AD38 Viability Normalized Result (cmpd/DMSO %) at 10 μM (AD38 cells): 103%

Compound: O=C(NCc1cncnc1)c1ccc2c(c1)NC(=O)c1ccc(Cl)cc1S2 [Compound 542]
- activity at 10 µM (HBV): 1.6%
- AD38 Viability Normalized Result (cmpd/DMSO %) at 10 μM (AD38 cells): 106%

Compound: O=C(NCc1ccc(-c2ccc(O)cc2Cl)nc1)c1ccc2c(c1)NC(=O)c1ccccc1S2(=O)=O [Compound 783]
- activity at 10 µM (HBV): 6.3%
- AD38 Viability Normalized Result (cmpd/DMSO %) at 10 μM (AD38 cells): 105%

Compound: O=C(NCCc1ccccn1)c1ccc2c(c1)NC(=O)c1ccccc1N2 [Compound 505]
- activity at 10 µM (HBV): 48.2%
- AD38 Viability Normalized Result (cmpd/DMSO %) at 10 μM (AD38 cells): 103%

Compound: O=C(NCc1cnc(-c2ccc(O)cc2Cl)nc1)c1ccc2c(c1)NC(=O)c1ccccc1S2(=O)=O [Compound 793]
- activity at 10 µM (HBV): 3.5%
- AD38 Viability Normalized Result (cmpd/DMSO %) at 10 μM (AD38 cells): 103%

Compound: O=C(NCc1cncnc1)c1ccc2c(c1)NC(=O)c1cc(Cl)ccc1S2 [Compound 539]
- activity at 10 µM (HBV): 0.2%
- AD38 Viability Normalized Result (cmpd/DMSO %) at 10 μM (AD38 cells): 0%

Compound: O=C(NCc1ccc(-c2ccc(O)c(Cl)c2)nc1)c1ccc2c(c1)NC(=O)c1ccccc1S2(=O)=O [Compound 784]
- activity at 10 µM (HBV): 137%
- AD38 Viability Normalized Result (cmpd/DMSO %) at 10 μM (AD38 cells): 103%

Compound: O=C(NCCc1cccnc1)c1ccc2c(c1)NC(=O)c1ccccc1N2 [Compound 506]
- activity at 10 µM (HBV): 31.6%
- AD38 Viability Normalized Result (cmpd/DMSO %) at 10 μM (AD38 cells): 100%

Compound: COc1ccc(Cc2ccc(CNC(=O)c3ccc4c(c3)NC(=O)c3ccccc3O4)cn2)cc1 [Compound 837-A, N-((6-(4-methoxybenzyl)pyridin-3-yl)methyl)-11-oxo-10, 11-dihydrodibenzo[b,f][1, 4]oxazepine-8-carboxamide]
- activity at 10 µM (HBV): 5.6%
- AD38 Viability Normalized Result (cmpd/DMSO %) at 10 μM (AD38 cells): 105%

Compound: Cc1cc2c(cc1C(=O)NCc1cccnc1)NC(=O)c1ccccc1S2 [Compound 497]
- activity at 10 µM (HBV): 38.7%
- AD38 Viability Normalized Result (cmpd/DMSO %) at 10 μM (AD38 cells): 97%

Compound: O=C(NCc1nnc(-c2ccc(O)cc2)s1)c1ccc2c(c1)NC(=O)c1ccccc1O2 [Compound 739]
- activity at 10 µM (HBV): 62.2%
- AD38 Viability Normalized Result (cmpd/DMSO %) at 10 μM (AD38 cells): 108%

Compound: O=C(NCc1cccnc1)c1ccc2c(c1)NC(=O)c1ccc(Cl)cc1S2 [Compound 543]
- activity at 10 µM (HBV): 1.2%
- AD38 Viability Normalized Result (cmpd/DMSO %) at 10 μM (AD38 cells): 24%

Compound: O=C(NCc1cnc(-c2ccc(O)c(Cl)c2)nc1)c1ccc2c(c1)NC(=O)c1ccccc1S2(=O)=O [Compound 794]
- activity at 10 µM (HBV): 1.3%
- AD38 Viability Normalized Result (cmpd/DMSO %) at 10 μM (AD38 cells): 104%

Compound: O=C(NCc1ccc(-c2cc(F)c(O)c(F)c2)nc1)c1ccc2c(c1)NC(=O)c1ccccc1S2(=O)=O [Compound 787]
- activity at 10 µM (HBV): 15.5%
- AD38 Viability Normalized Result (cmpd/DMSO %) at 10 μM (AD38 cells): 100%

Compound: NC(=O)c1ccc(-c2ccc(CNC(=O)c3ccc4c(c3)NC(=O)c3ccccc3S4(=O)=O)nc2)cc1 [Compound 870, N-((5-(4-carbamoylphenyl)pyridin-2-yl)methyl)-11-oxo-10, 11-dihydrodibenzo[b,f][1,4]thiazepine-8-carboxamide 5,5-dioxide]
- activity at 10 µM (HBV): 82.7%
- AD38 Viability Normalized Result (cmpd/DMSO %) at 10 μM (AD38 cells): 106%

Compound: O=C(NCc1ccc(C(F)(F)F)nc1)c1ccc2c(c1)NC(=O)c1ccccc1S2(=O)=O [Compound 875]
- activity at 10 µM (HBV): 26.1%
- AD38 Viability Normalized Result (cmpd/DMSO %) at 10 μM (AD38 cells): 108%

Compound: Nc1ncc(-c2ccc(CNC(=O)c3ccc4c(c3)NC(=O)c3ccccc3S4(=O)=O)cn2)cn1 [Compound 782]
- activity at 10 µM (HBV): 25.4%
- AD38 Viability Normalized Result (cmpd/DMSO %) at 10 μM (AD38 cells): 108%

Compound: O=C(NCc1cccnc1)c1ccc2c(c1)NC(=O)c1cc(Cl)ccc1S2 [Compound 540]
- activity at 10 µM (HBV): 0.6%
- AD38 Viability Normalized Result (cmpd/DMSO %) at 10 μM (AD38 cells): 52%

Compound: O=C(NCc1ccc(-c2ccccc2CO)nc1)c1ccc2c(c1)NC(=O)c1ccccc1S2(=O)=O [Compound 843]
- activity at 10 µM (HBV): 18.8%
- AD38 Viability Normalized Result (cmpd/DMSO %) at 10 μM (AD38 cells): 103%

Compound: COc1ccc(Cc2ccc(CNC(=O)c3ccc4c(c3)NC(=O)c3ccccc3S4(=O)=O)cn2)cc1 [Compound 825-A, N-((6-(4-methoxybenzyl)pyridin-3-yl)methyl)-11-oxo-10, 11-dihydrodibenzo[b,f][1,4]thiazepine-8-carboxamide 5,5-dioxide]
- activity at 10 µM (HBV): 6.2%
- AD38 Viability Normalized Result (cmpd/DMSO %) at 10 μM (AD38 cells): 58%

Compound: NC(=O)c1ccc(-c2ccc(CNC(=O)c3ccc4c(c3)NC(=O)c3ccccc3S4(=O)=O)cn2)cc1 [Compound 868, N-((6-(4-carbamoylphenyl)pyridin-3-yl)methyl)-11-oxo-10,11-dihydrodibenzo[b,f][1,4]thiazepine-8-carboxamide 5,5-dioxide]
- activity at 10 µM (HBV): 27.7%
- AD38 Viability Normalized Result (cmpd/DMSO %) at 10 μM (AD38 cells): 103%
